Patent US12291651B2, “Liquid crystal-infused slippery anti-fouling surfaces” (priority 2021, dated 2025)
Blank lines part the entries; values can stand above or below the compound they belong to.

Legend:
[1] = tested on: S. aureus QS; assay: Sliding time of droplets of S. aureus WT culture grown with QS inhibitor on LC-infused SLIPS; format: cell-based; conditions: WT S. aureus cultured 24 hours with 1 μM inhibitor; QS mutant ~7 s, WT ~27 s
Experimental: Characterization of Droplet Sliding Times. Characterization of the sliding times of droplets placed on the surfaces of LC-infused SLIPS was performed in the following general manner. LC-infused SLIPS were placed on a custom-made stage, and the stage was attached to the moving arm of a digital protractor using binding clips. The digital protractor was set at a specified sample angle, and a pre-determined volume of aqueous solution was placed as a droplet on the surface of the liquid-infused surface. Sliding droplets were recorded on digital video, and the time required for droplets to slide 4.0 cm along the surface was measured using a digital timer. […] For each surfactant solution, the sliding times of at least 3-5 droplets were measured and used to calculate an average sliding time with standard deviation. […]
Additional experiments were performed to determine whether LC-infused SLIPS could detect the presence of PSMs in live cultures of S. aureus and, thereby, provide methods to monitor QS in communities of this pathogen in ways analogous to the studies of P. aeruginosa above. For these experiments, a S. aureus WT strain and a QS mutant strain (lacking AgrBD, proteins critical for QS) were cultured for 24 hours and the sliding times of droplets of these cultures on LC-infused SLIPS were measured. […]

[2] = tested on: S. aureus QS; conditions: cited from earlier work
[3] = Contact angle and base diameter of surfactant droplets on LC-infused SLIPS; format: physicochemical; conditions: 50 μL droplets: 100 mM DBTAB aqueous; 100 μM SDS in PBS
[4] = air-water interface; cited from earlier work

Compound: AIP-III D4A
sliding time of culture droplets [1]: ~7 s
concentration that fully inhibits S. aureus QS [2]: ≥ 1 nM

droplet base diameter on LC-infused SLIPS [3]: 4.14±0.02 mm
Compound: CCCCCCCCCCCCOS(=O)(=O)[O-].[Na+] [SDS, Sodium dodecyl sulfate]

Compound: CCCCCCCCCCCC[N+](C)(C)C.[Br-] [DTAB, dodecyl-trimethylammonium bromide]
limiting surface area [4]: 55-63 Å^2
